The results in this text go back to ChEMBL document CHEMBL4041472, “Curacin E from the Brittle Star Ophiocoma scolopendrina” (J Nat Prod, 2016).

Structures are written as SMILES. Calls of active or inactive are those of the source. No cut-off for these calls is given here.

One test has as its system P388. Briefly: Cytotoxicity against mouse P388 cells assessed as reduction in cell viability at >= 20 nM after 96 hrs by MTT assay. Type of test: functional, cell-based.
For test [1], the target named is T1, Protein deacetylase HDAC6 (Mus musculus) (UniProt Q9Z2V5).
T1 sequence (whole entry): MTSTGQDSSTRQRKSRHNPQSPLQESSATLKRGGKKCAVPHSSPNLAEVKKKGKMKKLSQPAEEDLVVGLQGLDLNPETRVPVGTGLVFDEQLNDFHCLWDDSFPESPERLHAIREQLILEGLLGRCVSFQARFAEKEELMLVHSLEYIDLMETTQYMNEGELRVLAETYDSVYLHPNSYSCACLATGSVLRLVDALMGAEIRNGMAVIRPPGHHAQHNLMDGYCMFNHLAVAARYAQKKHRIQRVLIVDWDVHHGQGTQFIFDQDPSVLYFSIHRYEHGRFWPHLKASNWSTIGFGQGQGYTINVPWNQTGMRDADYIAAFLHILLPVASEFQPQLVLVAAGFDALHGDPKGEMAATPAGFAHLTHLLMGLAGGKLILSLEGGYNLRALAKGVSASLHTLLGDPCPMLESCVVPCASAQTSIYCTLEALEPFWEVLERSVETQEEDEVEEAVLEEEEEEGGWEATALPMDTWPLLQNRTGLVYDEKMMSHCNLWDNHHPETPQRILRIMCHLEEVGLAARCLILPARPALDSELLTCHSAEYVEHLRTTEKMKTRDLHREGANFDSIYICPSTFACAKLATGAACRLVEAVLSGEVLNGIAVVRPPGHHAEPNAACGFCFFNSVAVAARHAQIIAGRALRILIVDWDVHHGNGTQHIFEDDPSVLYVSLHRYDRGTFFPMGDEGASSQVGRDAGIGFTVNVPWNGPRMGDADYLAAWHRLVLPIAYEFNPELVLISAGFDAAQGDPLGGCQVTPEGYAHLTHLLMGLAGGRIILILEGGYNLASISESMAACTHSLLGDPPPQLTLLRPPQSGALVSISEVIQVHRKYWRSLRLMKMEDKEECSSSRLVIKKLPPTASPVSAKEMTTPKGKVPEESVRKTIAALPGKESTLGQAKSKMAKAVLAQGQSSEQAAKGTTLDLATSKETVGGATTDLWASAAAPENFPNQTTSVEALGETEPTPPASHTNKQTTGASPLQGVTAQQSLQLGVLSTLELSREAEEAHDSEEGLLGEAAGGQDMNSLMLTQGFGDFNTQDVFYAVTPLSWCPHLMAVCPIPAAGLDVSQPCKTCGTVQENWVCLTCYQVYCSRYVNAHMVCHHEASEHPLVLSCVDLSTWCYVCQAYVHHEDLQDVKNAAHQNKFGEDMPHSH
In words: Inhibition of mouse FLAG-tagged HDAC6 expressed in human 293T cells coexpressing HDA2 up to 50 uM using Ac-KGLGK(Ac)-MCA as substrate after 30 mins by fluorescence assay. The class given is cell-based.

The target in test [2] is Histone deacetylase 1 (Homo sapiens) (UniProt Q13547). In words: Inhibition of human FLAG-tagged HDAC1 expressed in human 293T cells up to 50 uM using Ac-KGLGK(Ac)-MCA as substrate after 30 mins by fluorescence assay.
Histone deacetylase 1 (Homo sapiens), sequence (Q13547 whole entry): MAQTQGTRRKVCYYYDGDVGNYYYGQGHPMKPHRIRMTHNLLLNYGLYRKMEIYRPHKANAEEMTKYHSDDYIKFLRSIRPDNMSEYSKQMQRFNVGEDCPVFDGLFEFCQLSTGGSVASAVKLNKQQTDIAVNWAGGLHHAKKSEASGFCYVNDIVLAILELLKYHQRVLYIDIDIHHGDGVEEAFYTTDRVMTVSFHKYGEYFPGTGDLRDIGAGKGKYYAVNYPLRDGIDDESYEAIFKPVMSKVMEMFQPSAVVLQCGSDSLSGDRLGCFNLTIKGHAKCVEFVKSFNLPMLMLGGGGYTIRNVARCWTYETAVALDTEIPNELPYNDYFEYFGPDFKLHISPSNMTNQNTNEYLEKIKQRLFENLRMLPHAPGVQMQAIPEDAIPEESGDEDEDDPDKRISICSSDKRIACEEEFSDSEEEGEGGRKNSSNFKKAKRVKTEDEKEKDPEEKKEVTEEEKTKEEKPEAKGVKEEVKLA
Test [3] deals with T2, NAD-dependent protein deacetylase sirtuin-1 (Homo sapiens) (UniProt Q96EB6).
T2 sequence (whole entry): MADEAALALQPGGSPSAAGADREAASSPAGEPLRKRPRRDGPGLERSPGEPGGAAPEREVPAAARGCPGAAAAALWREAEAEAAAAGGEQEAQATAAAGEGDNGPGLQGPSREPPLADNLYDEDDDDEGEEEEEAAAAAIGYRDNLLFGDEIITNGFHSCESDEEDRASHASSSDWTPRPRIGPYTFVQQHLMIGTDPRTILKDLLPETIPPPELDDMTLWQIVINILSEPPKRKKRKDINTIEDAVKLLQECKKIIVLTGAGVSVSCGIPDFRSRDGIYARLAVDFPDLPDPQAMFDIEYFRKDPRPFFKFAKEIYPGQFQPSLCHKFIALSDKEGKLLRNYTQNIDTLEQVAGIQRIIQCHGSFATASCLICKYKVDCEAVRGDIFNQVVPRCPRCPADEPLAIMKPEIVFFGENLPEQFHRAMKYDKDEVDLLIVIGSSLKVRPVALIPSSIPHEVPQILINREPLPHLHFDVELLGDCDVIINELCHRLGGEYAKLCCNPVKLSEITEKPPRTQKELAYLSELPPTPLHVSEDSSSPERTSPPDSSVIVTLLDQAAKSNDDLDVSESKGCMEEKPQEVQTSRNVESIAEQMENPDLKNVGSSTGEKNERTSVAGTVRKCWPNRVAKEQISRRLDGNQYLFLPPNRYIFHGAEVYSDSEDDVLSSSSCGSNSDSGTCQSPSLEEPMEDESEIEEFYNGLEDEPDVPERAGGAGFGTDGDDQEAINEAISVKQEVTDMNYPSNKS
Briefly: Inhibition of human SIRT1 expressed in Escherichia coli BL21(DE3) up to 50 uM using Ac-RHKK(Ac)-MCA as substrate after 60 mins in presence of NAD by fluorescence assay.

Consider `CCC(=O)CC(CC/C=C/C=C/CC/C=C\[C@@H]1CSC([C@@H]2C[C@@H]2C)=N1)OC` (some centres undefined), for which, in the test with P388, the outcome was Active. Also, the inhibition entry in test [1], in test [2] and in test [3] was “inactive” each time.
